B1: oncostatin M (protein, UniProt P13725 26-221, looked up)
Oncostatin-M: AAIGSCSKEYRVLLGQLQKQTDLMQDTSRLLDPYIRIQGLDVPKLREHCRERPGAFPSEETLRGLGRRGFLQTLNATLGCVLHRLADLEQRLPKAQDLERSGLNIEDLEKLQMARPNILGLRNNIYCMAQLLDNSDTAEPTKAGRGASQPPTPTPASDAFQRKLEGCRFLHGYHRFMHSVGRVFSKWGESPNRSRR
notes: differentiation induction factor for osteoblasts from human mesenchymal stem cells in serum-free medium

Experiments:
[1] = test system: human mesenchymal stem cells; assay: Differentiation of human mesenchymal stem cells into adipocytes, Oil Red O staining of accumulated intracellular lipids; format: cell-based; settings: cholecystokinin 100 nM in differentiation induction medium; compared to cholecystokinin-free control; FIG. 1
Experimental: Human mesenchymal stem cells were incubated in a 24-well culture plate until the cells became confluent. Then, the medium was exchanged with a differentiation induction medium prepared by adding cholecystokinin (100 nM) to high-glucose DMEM medium supplemented with insulin, dexamethasone, isobutylmethylxanthine, indomethacin, antibiotic and 10% fetal bovine serum, and incubation was continued for 3 days. For control, a cholecystokinin-free differentiation induction medium was used. After incubation was conducted for 3 days in a high-glucose DMEM medium (adipocyte maintenance medium) supplemented only with insulin, antibiotic and 10% fetal bovine serum, the same treatments (the induction and the maintenance, respectively, for 3 days) were repeated. Accumulated intracellular lipids were visualized by staining with Oil Red 0 dye.

[2] = test system: human mesenchymal stem cells; assay: Osteoblast differentiation induction from human mesenchymal stem cells, accumulated calcium level per well (Calcium C-Test); format: cell-based; settings: oncostatin M added (10 ng/ml); irrespective of presence or absence of FBS; compared to 10% FBS-containing differentiation medium without oncostatin M; FIG. 2
Experimental: Human mesenchymal stem cells were purchased from Cambrex, Inc. Dulbecco's Modified Eagle Medium (DMEM, Invitrogen) containing 1.0 g/l of glucose and supplemented with 10% fetal bovine serum (Stem Cell Technologies), 2 mM L-glutamine (Invitrogen), 100 U/ml penicillin and 100 μg/ml streptomycin was used as a maintenance medium. The maintenance medium supplemented with 0.1 μM dexamethasone, 0.05 mM ascorbic acid and 10 mM β-glycerophosphate (=10% FBS-containing differentiation medium) or fetal bovine serum-free maintenance medium supplemented with the three components above was used as a differentiation medium (=serum-free differentiation medium). […] Subsequently, the medium was exchanged every 4 days, and the accumulated calcium level per well was quantified on day 10 of the incubation (Calcium C-Test, Wako Pure Chemical).

Molecule | lipid accumulation (accumulated intracellular lipids, Oil Red O staining) compared to control [1] | accumulation of calcium per well on day 10 of the incubation [2]
cholecystokinin (DYMGWMDF) [ligand of the cholecystokinin receptor] | lipid accumulation is enhanced | 
B1 |  | marked accumulation of calcium was observed

From patent US20090232771A1, “Method of controlling cell functions” (Takeda Pharmaceutical Company Limited, priority 2004, published 2009)
